Reference: article PMC5458078, “Global mapping of CARM1 substrates defines enzyme specificity and substrate recognition” (Nature Communications, 2017)

How the values were obtained:
MCF7 cells = test: Quantitative nanoLC-MS/MS (TMT) of ADMA-containing peptides, CARM1 KO vs parental; assay type: cell-based, human; design: Fold change KO/WT: scale not given here
MCF7 CARM1 KO cells = test: Quantitative MS of ADMA-containing peptides in MCF7 CARM1 KO cells expressing CARM1 28-608 or CARM1 140-608, and in CARM1 KO; assay type: cell-based, human
[1] = ADMA-containing peptide, MCF7, CARM1 knockout (KO1-3) vs wild type (WT1-3), TMT 6-plex experiment #1
[2] = log2 scale ratio, mean of n = 3
[3] = MCF7, CARM1 KO (KO1-KO3) vs wild type (WT1-WT3)
[4] = CARM1 140-608 vs WT, mean of 3 replicates (log2 scale)
[5] = KO vs WT, mean of 3 replicates (log2 scale)
[6] = CARM1 140-608 versus WT, mean of three replicates (log2)
[7] = KO versus WT, mean of three replicates (log2)
[8] = CARM1 KO vs wild type MCF7 cells, 3 biological replicates each
[9] = CARM1 140-608 versus WT, difference of mean log2 values
[10] = CARM1 KO versus WT, difference of mean log2 values
[11] = ADMA-containing peptide, CARM1 knockout (KO) vs wild type (WT) MCF7 cells, 6-plex TMT experiment #1, three biological replicates each, sheet "MCF7"
[12] = MCF7, CARM1 knockout vs wild type, n = 3 each
[13] = mean, CARM1 140-608 versus WT (log2 scale)
[14] = mean, CARM1 KO versus WT (log2 scale)
[15] = ratio on log2 scale, mean of 3 replicates
[16] = difference of log2 means, CARM1 140-608 vs WT
[17] = difference of log2 means, KO vs WT
[18] = MCF7 CARM1 knockout vs wild type, 3 biological replicates each, values are on log2 scale

Substance: DGLTPVPPLAPAPrPPSSGLPAVLNPrPTLTPGrLPTPTLGTArAPMPTPTLVrPLLK
- Fold change KO/WT (MCF7 cells; [1]): -3.645
- CARM1 140-608/WT (MCF7 CARM1 KO cells; [2]): -0.2727
- KO/WT (MCF7 CARM1 KO cells; [2]): -4.325

Substance: SVVESSAPGANNLQVNALVArLPLLLPrAPR
- Fold change KO/WT (MCF7 cells; [3]): -2.886
- CARM1 140-608/WT (MCF7 CARM1 KO cells; [4]): -1.353
- KO/WT (MCF7 CARM1 KO cells; [5]): -2.886

Substance: APrFPSNIIVTNGAAR
- Fold change KO/WT (MCF7 cells; [3]): -1.771
- CARM1 140-608/WT (MCF7 CARM1 KO cells; [6]): -0.8621
- KO/WT (MCF7 CARM1 KO cells; [7]): -1.771

Substance: HASErGHLR
- Fold change KO/WT (MCF7 cells; [8]): 1.422
- CARM1 140-608/WT (MCF7 CARM1 KO cells; [9]): 0.2697
- KO/WT (MCF7 CARM1 KO cells; [10]): 1.422

Substance: FEGGHGPSGAAIrFDGPHGQPGGGIrFEGPLLQQGVGMrFEGPHGQSVAGLR
- Fold change KO/WT (MCF7 cells; [11]): -1.343
- CARM1 140-608/WT (MCF7 CARM1 KO cells; [6]): -0.8121
- KO/WT (MCF7 CARM1 KO cells; [7]): -1.343

Substance: ELAPrAHVLSK
- Fold change KO/WT (MCF7 cells; [12]): -2.404
- CARM1 140-608/WT (MCF7 CARM1 KO cells; [13]): -1.733
- KO/WT (MCF7 CARM1 KO cells; [14]): -2.404

Substance: LGrLLGIFEQNQDRKHR
- Fold change KO/WT (MCF7 cells; [11]): -0.4775
- CARM1 140-608/WT (MCF7 CARM1 KO cells; [6]): -0.3444
- KO/WT (MCF7 CARM1 KO cells; [7]): -0.4775

Substance: LHrSPLTFPAWVrPPEAAR
- Fold change KO/WT (MCF7 cells; [12]): -1.489
- CARM1 140-608/WT (MCF7 CARM1 KO cells; [15]): -1.436
- KO/WT (MCF7 CARM1 KO cells; [15]): -1.489

Substance: VrPVLNLPGPGPALPrALER
- Fold change KO/WT (MCF7 cells; [11]): -2.391
- CARM1 140-608/WT (MCF7 CARM1 KO cells; [16]): -2.008
- KO/WT (MCF7 CARM1 KO cells; [17]): -2.391

Substance: APPVrYCIPGER
- Fold change KO/WT (MCF7 cells; [12]): -5.161
- CARM1 140-608/WT (MCF7 CARM1 KO cells; [15]): -3.736
- KO/WT (MCF7 CARM1 KO cells; [15]): -5.161

Substance: FIQPrPTLNQPPPPLIRPANSMPPR
- Fold change KO/WT (MCF7 cells; [3]): -1.409
- CARM1 140-608/WT (MCF7 CARM1 KO cells; [4]): 0.5669
- KO/WT (MCF7 CARM1 KO cells; [5]): -1.409

Substance: GPrFEGNRPDGPrPrYEGHPAEGTK
- Fold change KO/WT (MCF7 cells; [8]): -2.637
- CARM1 140-608/WT (MCF7 CARM1 KO cells; [9]): -1.638
- KO/WT (MCF7 CARM1 KO cells; [10]): -2.637

Substance: VSTSGPrAFSSrSYTSGPGSR
- Fold change KO/WT (MCF7 cells; [18]): -3.7435
- CARM1 140-608/WT (MCF7 CARM1 KO cells; [16]): -3.492
- KO/WT (MCF7 CARM1 KO cells; [17]): -3.7435

Substance: QSSATSSFGGLGGGSVrFGPGVAFR
- Fold change KO/WT (MCF7 cells; [18]): -2.868
- CARM1 140-608/WT (MCF7 CARM1 KO cells; [16]): -2.723
- KO/WT (MCF7 CARM1 KO cells; [17]): -4.023

Substance: GrGTLTrGAFVGATAAPGYIAPGYGTPYGYSTAAPAYGLPK
- Fold change KO/WT (MCF7 cells; [1]): 0.06714
- CARM1 140-608/WT (MCF7 CARM1 KO cells; [2]): -0.05087
- KO/WT (MCF7 CARM1 KO cells; [2]): 0.2558

Substance: VSTSGPrAFSSrSYTSGPGSrISSSSFSR
- Fold change KO/WT (MCF7 cells; [18]): -2.338
- CARM1 140-608/WT (MCF7 CARM1 KO cells; [16]): -2.338
- KO/WT (MCF7 CARM1 KO cells; [17]): -2.338

Substance: LQLGTPPPLLAArLVPPR
- Fold change KO/WT (MCF7 cells; [3]): -2.7388
- CARM1 140-608/WT (MCF7 CARM1 KO cells; [6]): -3.287
- KO/WT (MCF7 CARM1 KO cells; [7]): -5.072

Substance: MGLLSPSGIGGVSPrHALTSPSLGGQGR
- Fold change KO/WT (MCF7 cells; [3]): -1.616
- CARM1 140-608/WT (MCF7 CARM1 KO cells; [4]): -0.809
- KO/WT (MCF7 CARM1 KO cells; [5]): -1.616

Substance: IPYPAGTLPNPLLPHPLHENEVLrHQLFAAPYR
- Fold change KO/WT (MCF7 cells; MCF7, CARM1 KO vs WT, three biological replicates each): -1.146
- CARM1 140-608/WT (MCF7 CARM1 KO cells; CARM1 140-608 vs WT, mean of 3 replicates, log2): -0.5059
- KO/WT (MCF7 CARM1 KO cells; KO vs WT, mean of 3 replicates, log2): -1.312

Substance: VSTSGPrAFSSR
- Fold change KO/WT (MCF7 cells; [18]): -3.388
- CARM1 140-608/WT (MCF7 CARM1 KO cells; [16]): -3.216
- KO/WT (MCF7 CARM1 KO cells; [17]): -3.388

Substance: NHPrVYQNR
- Fold change KO/WT (MCF7 cells; [1]): 0.9632
- CARM1 140-608/WT (MCF7 CARM1 KO cells; [2]): -0.04969
- KO/WT (MCF7 CARM1 KO cells; [2]): 0.9632

Substance: NAALGPSEPrLALAPVGPrAAMSASSEGPrLALASPrPILAPLCTPEGQK
- Fold change KO/WT (MCF7 cells; [18]): -3.912
- CARM1 140-608/WT (MCF7 CARM1 KO cells; [13]): -2.352
- KO/WT (MCF7 CARM1 KO cells; [14]): -3.912

Substance: QLESLWSDSPAPPGPQAGPPSRPPrYSSSSIPEPFGSR
- Fold change KO/WT (MCF7 cells; [3]): -2.771
- CARM1 140-608/WT (MCF7 CARM1 KO cells; [6]): -1.865
- KO/WT (MCF7 CARM1 KO cells; [7]): -2.771

Substance: QAPrDGLTPVPPLAPAPrPPSSGLPAVLNPrPTLTPGrLPTPTLGTArAPMPTPTLVrPLLK
- Fold change KO/WT (MCF7 cells; [1]): -4.977
- CARM1 140-608/WT (MCF7 CARM1 KO cells; [2]): -2.613
- KO/WT (MCF7 CARM1 KO cells; [2]): -4.977

Substance: DCGTLPNrFVITPR
- Fold change KO/WT (MCF7 cells; [11]): -0.2619
- CARM1 140-608/WT (MCF7 CARM1 KO cells; [6]): -0.5335
- KO/WT (MCF7 CARM1 KO cells; [7]): -0.73
